Consider two compounds from patent publication US4089946A, “Claudogenic-interceptive nonapeptides” (American Home Products Corporation, priority 1976, dated 1978).

The test system of assay [1] is Proestrous female Sprague-Dawley rats (ovulation, ova in fallopian tubes). The assay can be described thus: Ovulation induction in Nembutal-blocked proestrous rats. It is filed as in vivo, rat. Here is the method: The ovulation-induction properties of the nonapeptides of this invention was determined with the preferred compound, [D-Trp^6,(N-methyl)Leu^7,des-Gly-NH2^10,Pro-ethylamide]LRH as follows: Proestrous female Sprague-Dawley rats were injected intraperitoneally with a hypnotic dose of Nembutal® (50 mg/kg) at 1:30 PM. Between 1:40 and 1:50 PM the rats received the test material via the jugular vein. The following morning the animals were sacraficed and the fallopian tubes examined for ova under a dissecting microscope. […] Thus, in its ovulation induction, the preferred compound of this invention is about ten times as active as its closest structural analogues.

Assay [2] has as its system Mature, female, Sprague-Dawley rats (pregnancy: uterine implantation sites and fetuses). The assay can be described thus: Anti-gravidity (claudogenic/interceptive, post-coital) evaluation in pregnant rats. In kind it is in vivo, rat. An excerpt:
The procedure followed in evaluating the anti-gravidity properties of the nonapeptides of this invention was as follows: Mature, female, Sprague-Dawley rats (350 + 30 grams body weight) maintained on a 14:10 light:dark schedule were caged with fertile male rats on the evening of proestrus. The presence of vaginal sperm the next morning was considered day 1 of pregnancy. The nonapeptide ethylamine produced in the following examples, representative of the entire group of compounds of this invention, was administered subcutaneously in a corn oil vehicle on days 1-7, or 7-12 of pregnancy at a rate of as low as 1 μg/rat/day. One-half the daily dose was administered at 9 A.M. and at 3 P.M. each day. The recipients of day 1-7 treatment were autopsied on day 14. The recipients of day 7-12 treatment were autopsied on day 18 of pregnancy. The effectiveness of the ethylamide and its effective dose was established by the absence of uterine implantation sites and fetuses. The presence of at least one normal fetus was considered to be the criterion for pregnancy. […]

With `CCNC(=O)[C@@H]1CCCN1C(=O)[C@H](CCCNC(=N)N)NC(=O)[C@H](CC(C)C)N(C)C(=O)[C@@H](Cc1c[nH]c2ccccc12)NC(=O)[C@H](Cc1ccc(O)cc1)NC(=O)[C@H](CO)NC(=O)[C@H](Cc1c[nH]c2ccccc12)NC(=O)[C@H](Cc1c[nH]cn1)NC(=O)[C@@H]1CCC(=O)N1` [L-pyroglutamyl-L-histidyl-L-tryptophyl-L-seryl-L-tyrosyl-D-tryptophyl-N-methyl-L-leucyl-L-arginyl-L-prolinethylamide], in assay [1] (0.1 mg per rat via the jugular vein), the “rats showing ovulation inducing activity” value is recorded as 100%. For the same compound, the “ovulation induction activity relative to closest structural analogues” value in assay [1] (rat, in vivo) was “about ten”. The “effectiveness of treatment (absence of uterine implantation sites and fetuses)” value came out at 100% in assay [2] (1 microgram per rat per day subcutaneously in corn oil, day 1-7 of pregnancy, five rat sample, autopsy day 14) and 100% in assay [2] (10 micrograms per rat per day subcutaneously in corn oil, day 7-12 of pregnancy, autopsy day 18).

For “LRH: LRH itself, the parent hormone used as comparison for ovulation induction (QHWSYGLRPG; Gonadoliberin-1; UniProt P01148 24-33, looked up) [reference compound]”, the “dose required to obtain 100 percent ovulation” value in assay [1] (via the jugular vein) was “about 3 mg per rat”.
